# Experimental data taken from publication PMC10607100, “Anticancer and Antiphytopathogenic Activity of Fluorinated Isatins and Their Water-Soluble Hydrazone Derivatives” (International Journal of Molecular Sciences, 2023).
# Where two headings read alike, the source gives them in different places.
# Experiments:
# HuTu 80 = assay: MTT cell viability test, HuTu 80; assay type: cell-based, human; conditions: Homo sapiens, HuTu80; incubation time 24 h
# Method: (§1) Human cell cultures of tumor origin—HeLa (cervical tumor), HuTu 80 (human duodenal adenocarcinoma), ChangLiver (human liver HeLa-like line), and normal cell line WI38, VA 13 subline 2RA is a diploid human cell strain composed of fibroblasts derived from healthy lung tissue provided by The Gamaleya National Center for Epidemiology and Microbiology, as well as the Institute of Cytology of the Russian Academy of Sciences. They were grown in a nutrient medium DMEM (PanEco, Moscow, Russia) and MEM (PanEco, Moscow, Russia), containing fetal bovine serum (10% by volume) (ThermoFisher Scientific, Paisley, UK), Glutamax (2 mM) (Gibco, Scotland, UK), and penicillin-streptomycin (1% by volume) (PanEco, Moscow, Russia). The cultivation was carried out at 37 °C in a humidified CO2 atmosphere (5%).
# (§2) Cell viability was determined by the MTT test. Cells were seeded in a 96-well plate in the amount of 1 × 10^4 cells/200 µL of complete nutrient medium and cultured at 37 °C in CO2 (5%). After 24 h of incubation, various concentrations of test compounds in the range of 0.1 to 100 μM were added to the cell cultures, and then the cells were cultured under the same conditions for 24 and 72 h. For each concentration, the experiment was carried out in triplicate.
# (§3) All compounds were dissolved in DMSO and then diluted with the medium to the required concentration. […] The DMSO was also added to the control wells in a volume of 1%. After the incubation time, MTT (3-(4,5-dimethylthiazol-2-yl)-2,5-diphenyltetrazolium bromide, 5 mg/mL) was added to each well, and plates were additionally incubated for 2 h (until the characteristic color appeared).
# (§4) Using a plate analyzer (Cytation3, BioTech Instruments Inc., Winooski, VT, USA), the optical density was determined at 530 nm.
# (§5) The IC50 parameter was calculated using the AAT Bioquest program.
# (§6) The selectivity index (SI) is calculated as the ratio between the IC50 for normal cells and the IC50 for cancer cells.
# M-HeLa = assay: MTT cell viability test, M-HeLa; assay type: cell-based, human; conditions: Homo sapiens, M-HeLa; incubation time 24 h
# Method: as §1, §2, §3, §4, §5, §6
# Chang Liver = assay: MTT cell viability test, Chang liver; assay type: cell-based; conditions: Homo sapiens, incubation time 24 h
# Method: as §1, §2, §3, §4, §5
# [1] = system: Fusarium oxysporum IBPPM 543; assay: Mycelial radial growth inhibition; assay type: cell-based; conditions: Fusarium oxysporum; for inhibition at 10 µg/mL / inhibition at 15 µg/mL / inhibition at 30 µg/mL / inhibition at 60 µg/mL: read-out: Inhibition value, I (%)
# Text: (§7) Plant pathogenic bacterial strains Micrococcus luteus B-109, Pectobacterium atrosepticum 1043, Pectobacterium carotovorum subsp. carotovorum MI, Pseudomonas fluorescens EL-2.1, and Xanthomonas campestris B-610 and the fungal strain Fusarium oxysporum IBPPM 543 were from the Collection of Rhizosphere Microorganisms, IBPPM RAS (WFCC no. 975, WDCM no. 1021) (CM IBPPM, http://collection.ibppm.ru). The pathogenic fungus Phytophthora cactorum VKM F-985, provided by the All-Russian Collection of Microorganisms (VKM) and deposited at the A.E. Favorsky Irkutsk Institute of Chemistry, SB RAS, was also used as a test organism. Bacteria M. luteus, P. carotovorum subsp. carotovorum, P. atrosepticum, and P. fluorescens were grown in a meat–peptone medium (BP), and X. campestris was grown in the medium with glucose, yeast extract, and calcium carbonate (GYCa). Solid media contained Bacto agar (18 g/L); pH was adjusted to 7.2–7.4. All bacterial cultures were grown at 28 °C. The mycelial cultures of F. oxysporum and P. cactorum were grown on a glucose–peptone–yeast (GPY) nutrient medium at 27 °C. For inoculum preparation, both fungal strains were initially grown on the agar GPY in Petri dishes and then transferred into the seed medium by punching out 5 mm of the agar plate culture with a self-designed cutter.
# (§8) For the fungicidal activity analysis, radial growth (colony diameters) of the fungi on a solid medium in the absence and in the presence of the compounds 5a–e and 7a–c solutions at various concentrations were compared. The method consisted of the following: A sterile GPY agar medium (20.0 mL), which was melted and then allowed to cool to approximately 60 °C, was mixed with the precisely measured volumes of the solutions under question and poured into a sterile Petri dish (90 mm i.d.). After the solidification of GPY agar, the media were inoculated by the fungus using 10-day-old cultures of F. oxysporum or P. cactorum. The inoculation was conducted by transferring a 5-mm (i.d.) GPY-agar block covered with mycelium to the center of the Petri dish, followed by incubation in a thermostat at 27 °C. The fungicidal effect was scored by the size of the mycelium colony on a Petri dish compared to the control without fungicidal admixtures to GPY agar. Each treatment was performed in at least four replicates in two independent experiments. The observation period ended when the control Petri dish was filled with mycelium (usually after 12 days). […] The solutions of the compounds were prepared with a concentration of 2 mmol/L (stock solution). For comparison, test compounds were also commonly applied as disinfecting agents, and antibiotics were used as a positive control.
# [2] = system: Phytophthora cactorum VKM F-985; assay: Mycelial radial growth inhibition; assay type: cell-based; conditions: Phytophthora cactorum; for inhibition at 10 µg/mL / inhibition at 15 µg/mL / inhibition at 30 µg/mL / inhibition at 60 µg/mL: read-out: Inhibition value, I (%)
# Text: as §7, §8
# Micrococcus luteus B-109 = assay: Agar-well diffusion, bactericidal activity; assay type: cell-based; conditions: Micrococcus luteus, B109, 500 μg/mL; read-out: width of the inhibition zone (mm), M. luteus
# Text: as §7
# (§9) The antibacterial and antifungal activities of the compounds were explored using the agar-well diffusion method and the technique of mycelial radial growth inhibition. The method of diffusion in agar (measuring the diameter of growth inhibition zones) was used to determine the bactericidal activity. The 6-mm wells were made in agar medium (GYCa for Xanthomonas campestris or BP for other bacteria). Bacterial suspensions were distributed over the agar surface, and the tested compound’s solution (150 μL) was added to each well. The width of growth inhibition zones around the wells was determined after incubation for 36–40 h.
# [3] = system: Pectobacterium atrosepticum 1043; assay: Agar-well diffusion, bactericidal activity; assay type: cell-based; conditions: Pectobacterium atrosepticum, 1043; 500 μg/mL; read-out: width of the inhibition zone (mm), P. atrosepticum
# Text: as §7, §9
# [4] = system: Pseudomonas fluorescens EL-2.1; assay: Agar-well diffusion, bactericidal activity; assay type: cell-based; conditions: Pseudomonas fluorescens, EL2.1; 500 μg/mL; read-out: width of the inhibition zone (mm), Ps. fluorescens
# Text: as §7, §9
# [5] = system: Pectobacterium carotovorum subsp. carotovorum MI; assay: Agar-well diffusion, bactericidal activity; assay type: cell-based; conditions: Pectobacterium carotovorum; 500 μg/mL; read-out: width of the inhibition zone (mm), P. carotovorum subsp. carotovorum
# Text: as §7, §9
# [6] = system: Xanthomonas campestris B-610; assay: Agar-well diffusion, bactericidal activity; assay type: cell-based; conditions: Xanthomonas campestris, B610, read-out: width of the inhibition zone (mm), X. campestris
# Method: Bacteria M. luteus, P. carotovorum subsp. carotovorum, P. atrosepticum, and P. fluorescens were grown in a meat–peptone medium (BP), and X. campestris was grown in the medium with glucose, yeast extract, and calcium carbonate (GYCa). Solid media contained Bacto agar (18 g/L); pH was adjusted to 7.2–7.4. […] For inoculum preparation, both fungal strains were initially grown on the agar GPY in Petri dishes and then transferred into the seed medium by punching out 5 mm of the agar plate culture with a self-designed cutter.
# as §9
compound,measurement,setting,value
O=C1C(=O)N(Cc2c(F)cccc2F)c2ccccc21 [Compound 8c],IC50,HuTu 80,50.3 ± 3.6 µM
same,IC50,M-HeLa,98.8 ± 6.9 µM
same,IC50,Chang Liver,79 ± 5.5 µM
"Cc1ccc(CN2C(=O)C(=O)c3cc(F)ccc32)cc1 [Compound 4a, 5-Fluoro-1-(4-methylbenzyl)indoline-2,3-dione]",IC50,HuTu 80,44 ± 2.9 µM
same,melting point,,111 to 112 °C
same,IC50,M-HeLa,44.7 ± 3.3 µM
same,IC50,Chang Liver,80 ± 5.8 µM
"Cc1cc(C)cc(CN2C(=O)C(=O)c3cc(F)ccc32)c1 [Compound 4b, 1-(3,5-Dimethylbenzyl)-5-fluoroindoline-2,3-dione]",IC50,HuTu 80,50 ± 3.8 µM
same,melting point,,97 to 98 °C
same,IC50,M-HeLa,58.8 ± 4.4 µM
same,IC50,Chang Liver,63.2 ± 5.5 µM
O=C1C(=O)N(Cc2c(F)c(F)c(F)c(F)c2F)c2ccccc21 [Compound 8d],IC50,HuTu 80,54.1 ± 3.9 µM
same,IC50,M-HeLa,> 100 µM
same,IC50,Chang Liver,> 100 µM
O=C1C(=O)N(Cc2ccc(F)cc2Cl)c2ccccc21 [Compound 8a],IC50,HuTu 80,64 ± 4.5 µM
same,IC50,M-HeLa,50 ± 3.7 µM
same,IC50,Chang Liver,> 100 µM
"N#Cc1c[nH]cc1-c1cccc2c1OC(F)(F)O2 [Fludioxonil, fludioxonil, reference compound]",inhibition at 10 µg/mL,"[1]; IBPPM543, 72 h",18%
same,inhibition at 15 µg/mL,"[1]; IBPPM543, 72 h",21%
same,inhibition at 30 µg/mL,"[1]; IBPPM543, 72 h",26%
same,inhibition at 60 µg/mL,"[1]; IBPPM543, 72 h",32%
same,EC50,"[1]; IBPPM543, 120 h, read-out: EC50, µg/mL at Day 5, F. oxysporum",83.3 µg/mL
same,inhibition at 10 µg/mL,"[1]; IBPPM543, 120 h",23%
same,inhibition at 15 µg/mL,"[1]; IBPPM543, 120 h",30%
same,inhibition at 30 µg/mL,"[1]; IBPPM543, 120 h",33%
same,inhibition at 60 µg/mL,"[1]; IBPPM543, 120 h",35%
same,inhibition at 10 µg/mL,"[1]; IBPPM543, 168 h",6%
same,inhibition at 15 µg/mL,"[1]; IBPPM543, 168 h",20%
same,inhibition at 30 µg/mL,"[1]; IBPPM543, 168 h",23%
same,inhibition at 60 µg/mL,"[1]; IBPPM543, 168 h",25%
same,inhibition at 10 µg/mL,"[1]; IBPPM543, 216 h",4%
same,inhibition at 15 µg/mL,"[1]; IBPPM543, 216 h",5%
same,inhibition at 30 µg/mL,"[1]; IBPPM543, 216 h",8%
same,inhibition at 60 µg/mL,"[1]; IBPPM543, 216 h",9%
same,inhibition at 10 µg/mL,[2]; 72 h,36%
same,inhibition at 15 µg/mL,[2]; 72 h,38%
same,inhibition at 30 µg/mL,[2]; 72 h,40%
same,inhibition at 60 µg/mL,[2]; 72 h,52%
same,EC50,"[2]; 120 h, read-out: EC50, µg/mL at Day 5, P. cactorum",29.5 µg/mL
same,inhibition at 10 µg/mL,[2]; 120 h,38%
same,inhibition at 15 µg/mL,[2]; 120 h,46%
same,inhibition at 30 µg/mL,[2]; 120 h,51%
same,inhibition at 60 µg/mL,[2]; 120 h,57%
same,inhibition at 10 µg/mL,[2]; 168 h,35%
same,inhibition at 15 µg/mL,[2]; 168 h,42%
same,inhibition at 30 µg/mL,[2]; 168 h,46%
same,inhibition at 60 µg/mL,[2]; 168 h,49%
same,inhibition at 10 µg/mL,[2]; 216 h,9%
same,inhibition at 15 µg/mL,[2]; 216 h,17%
same,inhibition at 30 µg/mL,[2]; 216 h,23%
same,inhibition at 60 µg/mL,[2]; 216 h,29%
"CC(C)(C)c1cc(CN2C(=O)C(=O)c3cc(F)ccc32)cc(C(C)(C)C)c1 [Compound 4d, 1-(3,5-Di-tert-butylbenzyl)-5-fluoroindoline-2,3-dione]",IC50,HuTu 80,33.3 ± 2.3 µM
same,melting point,,136 to 137 °C
same,IC50,M-HeLa,58.4 ± 4.1 µM
same,IC50,Chang Liver,39.4 ± 2.8 µM
"CCn1cc(C(=O)O)c(=O)c2cc(F)c(N3CCNCC3)cc21 [Norfloxacin, norfloxacin, reference compound]",zone of inhibition at 500 µg/mL,Micrococcus luteus B-109,7 mm
same,zone of inhibition at 500 µg/mL,[3],7 mm
same,zone of inhibition at 500 µg/mL,[4],8 mm
same,zone of inhibition at 500 µg/mL,[5],8 mm
same,zone of inhibition at 500 µg/mL,[6],7 mm
